# Data: PMC6792352, “Limited Chemical Structural Diversity Found to Modulate Thyroid Hormone Receptor in the Tox21 Chemical Library” (Environmental Health Perspectives, 2019)
# Where a name gives a salt, the structure may show the parent alone. Read-outs that look alike come from different tables or passages of the source.
# Key:
# [1] = tested on: GH3-TRE-Luc cell line; conditions: read-out: AC50 (uM) modified / 1000, viability, 1 nM T3 present, 24 h
# [2] = in vitro; conditions: rat, gh3-tre-luc cells, AC50 (uM) modified / 1000
smiles,measurement,setting,value
"CC(C)CC(C)(c1ccc(O)cc1)c1ccc(O)cc1 [4,4'-(4-Methylpentane-2,2-diyl)diphenol]",CC50,[1]; Tox21_110001=Tox21_303608,34 µM
same,CC50 at 24 h,[2],41.6 µM
CCCCCCCC[N+](C)(C)CCCCCCCC [Dioctyldimethylammonium chloride],CC50,[1]; Tox21_110001=Tox21_113024,20.1 µM
same,CC50 at 24 h,[2],19.4 µM
c1ccc(Nc2cccc3ccccc23)cc1 [N-Phenyl-1-naphthylamine],CC50,[1]; Tox21_110001=Tox21_303075,61.1 µM
same,CC50 at 24 h,[2],64.9 µM
Cc1ccc(S(=O)(=O)Oc2ccc(N=Nc3ccc(-c4ccc(N=Nc5c(O)ccc6cc(S(=O)(=O)O)cc(S(=O)(=O)O)c56)c(C)c4)cc3C)cc2)cc1 [C.I. Acid Red 114],CC50,[1]; Tox21_110001=Tox21_302977,17.5 µM
same,CC50 at 24 h,[2],32.3 µM
CCN(CC)CCOc1ccc(C(=C(Cl)c2ccccc2)c2ccccc2)cc1 [Clomiphene],CC50,[1]; Tox21_110001=Tox21_113110,7.27 µM
same,CC50 at 24 h,[2],6.61 µM
O=C1c2ccccc2C(=O)N1SC1CCCCC1 [N-(Cyclohexylthio)phthalimide],CC50,[1]; Tox21_110001=Tox21_303596,23.2 µM
same,CC50 at 24 h,[2],37 µM
CCC(C)(c1ccc(O)cc1)c1ccc(O)cc1 [Bisphenol B],CC50,[1]; Tox21_110001=Tox21_300198,88.4 µM
same,CC50 at 24 h,[2],78.3 µM
O=C(O)C1=NN(c2ccc(S(=O)(=O)O)cc2)C(=O)C1N=Nc1ccc(S(=O)(=O)O)cc1 (stereo not drawn) [FD&C Yellow 5],CC50,[1]; Tox21_110001=Tox21_201539,43.1 µM
same,CC50,[1]; Tox21_110001=Tox21_300554,61.1 µM
same,CC50 at 24 h,[2],> 50 µM
Nc1ccc(O)cc1 [4-Aminophenol],CC50,[1]; Tox21_110001=Tox21_113242,9.32 µM
same,CC50,[1]; Tox21_110001=Tox21_201030,17.1 µM
same,CC50 at 24 h,[2],16.6 µM
CCCCC/C=C\C/C=C\CCCCCCCC(=O)O [Linoleic acid],CC50,[1]; Tox21_110001=Tox21_303080,58.3 µM
same,CC50 at 24 h,[2],> 90 µM
"CCCCC/C=C/C=C/C=O [(E,E)-2,4-Decadienal]",CC50,[1]; Tox21_110001=Tox21_303165,70.3 µM
same,CC50 at 24 h,[2],> 90 µM
"c1ccc2sc(SSN3CCOCC3)nc2c1 [2-(Morpholin-4-yldithio)-1,3-benzothiazole]",CC50,[1]; Tox21_110001=Tox21_303278,35 µM
same,CC50 at 24 h,[2],18.6 µM
O=C(c1cc(O)c(O)c(O)c1)c1ccc(O)c(O)c1O [Exifone],CC50,[1]; Tox21_110001=Tox21_303559,62.8 µM
same,CC50 at 24 h,[2],43.6 µM
"Clc1ccc(C(c2ccccc2Cl)C(Cl)(Cl)Cl)cc1 (stereo not drawn) [o,p'-DDT]",CC50,[1]; Tox21_110001=Tox21_300622,39.9 µM
same,CC50 at 24 h,[2],34 µM
CC(C)(C)C(O)(CCc1ccc(Cl)cc1)Cn1cncn1 (stereo not drawn) [Tebuconazole],CC50,[1]; Tox21_110001=Tox21_300487,57.7 µM
same,CC50 at 24 h,[2],64.3 µM
"COc1cc(-c2ccc(N)c(OC)c2)ccc1N [3,3'-Dimethoxybenzidine dihydrochloride]",CC50,[1]; Tox21_110001=Tox21_300315,65 µM
same,CC50 at 24 h,[2],> 90 µM
CCN(CC)CCSC(=O)C(c1ccccc1)c1ccccc1 [Thiphenamil],CC50,[1]; Tox21_110001=Tox21_111676,30.2 µM
same,CC50 at 24 h,[2],41 µM
CC1(C)[C@@H](O)CC[C@]2(C)[C@H]3C(=O)C=C4[C@@H]5C[C@@](C)(C(=O)O)CC[C@]5(C)CC[C@@]4(C)[C@]3(C)CC[C@@H]12 [Glycyrrhetinic acid],CC50,[1]; Tox21_110001=Tox21_110804,24.8 µM
same,CC50,[1]; Tox21_110001=Tox21_112726,19.8 µM
same,CC50 at 24 h,[2],28 µM
"Nc1ccc([N+](=O)[O-])cc1N [4-Nitro-1,2-phenylenediamine]",CC50,[1]; Tox21_110001=Tox21_302811,26.4 µM
same,CC50 at 24 h,[2],21.8 µM
C=C1CC[C@H](O)C/C1=C/C=C1\CCC[C@]2(C)[C@@H]([C@H](C)/C=C/[C@H](C)C(C)C)CC[C@@H]12 [Ergocalciferol],CC50,[1]; Tox21_110001=Tox21_302752,77.9 µM
same,CC50 at 24 h,[2],42.5 µM
CC(C)(c1ccccc1)c1ccc(O)cc1 [4-Cumylphenol],CC50,[1]; Tox21_110001=Tox21_300056,51 µM
same,CC50 at 24 h,[2],45.2 µM
Oc1c(Cl)cc(Cl)c(Cl)c1Cc1c(O)c(Cl)cc(Cl)c1Cl [Hexachlorophene],CC50,[1]; Tox21_110001=Tox21_111099,14.8 µM
same,CC50,[1]; Tox21_110001=Tox21_302741,22.4 µM
same,CC50 at 24 h,[2],17.1 µM
C=CC(=O)OCCOCCOCCOCCOC(=O)C=C [Tetraethylene glycol diacrylate],CC50,[1]; Tox21_110001=Tox21_202993,17.8 µM
same,CC50 at 24 h,[2],17.7 µM
CCCCCCCCCCCCCCCC[N+](C)(C)CC [Ethylhexadecyldimethylammonium bromide],CC50,[1]; Tox21_110001=Tox21_112326,6.28 µM
same,CC50 at 24 h,[2],11.9 µM
CC(C)(c1ccc(OCC2CO2)cc1)c1ccc(OCC2CO2)cc1 (stereo not drawn) [Bisphenol A diglycidyl ether],CC50,[1]; Tox21_110001=Tox21_303315,61.9 µM
same,CC50 at 24 h,[2],66.1 µM
CC(C)[C@@]1(NC(=O)[C@@H]2C[C@@H]3c4cccc5[nH]cc(c45)C[C@H]3N(C)C2)O[C@@]2(O)[C@@H]3CCCN3C(=O)[C@H](Cc3ccccc3)N2C1=O [Dihydroergocristine],CC50,[1]; Tox21_110001=Tox21_113115,21.9 µM
same,CC50 at 24 h,[2],21 µM
CO[C@H]1/C=C/O[C@@]2(C)Oc3c(C)c(O)c4c(O)c(c(/C=N/N5CCN(C)CC5)c(O)c4c3C2=O)NC(=O)/C(C)=C\C=C\[C@H](C)[C@H](O)[C@@H](C)[C@@H](O)[C@@H](C)[C@H](OC(C)=O)[C@@H]1C [Rifampicin],CC50,[1]; Tox21_110001=Tox21_111329,24.2 µM
same,CC50,[1]; Tox21_110001=Tox21_300550,32.4 µM
same,CC50 at 24 h,[2],29.8 µM
N=c1ccn2c(n1)O[C@H]1[C@H](O)[C@@H](CO)O[C@H]12 [Cyclocytidine],CC50,[1]; Tox21_110001=Tox21_111571,1.18 µM
same,CC50 at 24 h,[2],1.45 µM
CCCCCCCCCCCC[N+](C)(C)CCOc1ccccc1 [Domiphen bromide],CC50,[1]; Tox21_110001=Tox21_111054,12.4 µM
same,CC50 at 24 h,[2],10.6 µM
CNCCCC12CCC(c3ccccc31)c1ccccc12 [Maprotiline],CC50,[1]; Tox21_110001=Tox21_110200,11.7 µM
same,CC50 at 24 h,[2],6.11 µM
CCCCCC(=O)O[C@]1(C(C)=O)CC[C@H]2[C@@H]3CCC4=CC(=O)CC[C@]4(C)[C@H]3CC[C@@]21C [Hydroxyprogesterone caproate],CC50,[1]; Tox21_110001=Tox21_302333,26.2 µM
same,CC50 at 24 h,[2],17.9 µM
C#C[C@]1(OC(C)=O)CC[C@H]2[C@@H]3CCC4=C[C@@H](OC(C)=O)CC[C@@H]4[C@H]3CC[C@@]21C [Ethynodiol diacetate],CC50,[1]; Tox21_110001=Tox21_112924,44.6 µM
same,CC50 at 24 h,[2],45 µM
"Clc1ccc(C(c2ccc(Cl)cc2)C(Cl)Cl)cc1 [p,p'-DDD]",CC50,[1]; Tox21_110001=Tox21_300191,35.5 µM
same,CC50 at 24 h,[2],27.9 µM
Cc1cc(N=Nc2ccccc2C)ccc1N [2-Amino-5-azotoluene],CC50,[1]; Tox21_110001=Tox21_300300,40.4 µM
same,CC50 at 24 h,[2],50.9 µM
"O=C(CCl)c1ccc(Cl)cc1Cl [2,2',4'-Trichloroacetophenone]",CC50,[1]; Tox21_110001=Tox21_113246,2.14 µM
same,CC50,[1]; Tox21_110001=Tox21_113461,4.54 µM
